Reference: ChEMBL document CHEMBL1201862, “PubChem BioAssay data set” (2004)
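Each compound was tested at five concentrations against cells in 96-well plates for 48 hours. Abbreviation: GI50, concentration required for 50% inhibition of growth.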 The source made the active and inactive calls. Rule as the data show it: active = GI50 up to about 1.1 µM and inactive = higher.

Assays:
Test in all cases: DTP human tumour cell line panel, 48 h
SN12C = test system: SN12C
CAKI-1 = test system: CAKI-1
CCRF-CEM = test system: CCRF-CEM
UO-31 = test system: UO-31
A549 = test system: A549
MDA-MB-435 = test system: MDA-MB-435
NCI-H460 = test system: NCI-H460
M14 = test system: M14
MDA-MB-231 = test system: MDA-MB-231
MDA-N = test system: MDA-N
NCI-H226 = test system: NCI-H226
SK-MEL-28 = test system: SK-MEL-28
RXF 393 = test system: RXF 393
HL-60 = test system: HL-60
PC-3 = test system: PC-3
OVCAR-8 = test system: OVCAR-8
BT-549 = test system: BT-549
SK-MEL-5 = test system: SK-MEL-5

Measured: GI50

[O-][S+](CCCl)c1c2ccccc2nc2ccccc12 (centres undefined)
inactive: SN12C 23.3 µM | CAKI-1 14.8 µM | CCRF-CEM 21.3 µM | UO-31 > 100 µM | A549 > 100 µM | MDA-MB-435 84.9 µM | NCI-H460 > 100 µM | M14 75 µM | MDA-MB-231 70.6 µM | MDA-N 34.5 µM | NCI-H226 > 100 µM | SK-MEL-28 > 100 µM | RXF 393 > 100 µM | HL-60 29.4 µM | PC-3 > 100 µM | OVCAR-8 85.1 µM

CC1(C)OC[C@@H]([C@H](O)C2C=CC(=O)S2)O1 (some centres undefined)
inactive: SN12C 27.9 µM | CAKI-1 28.1 µM | CCRF-CEM 24.1 µM | UO-31 20.8 µM | A549 29.6 µM | MDA-MB-435 37.8 µM | NCI-H460 28.2 µM | M14 44.3 µM | MDA-MB-231 30.8 µM | BT-549 17.9 µM | MDA-N 22.1 µM | NCI-H226 27.5 µM | RXF 393 15 µM | HL-60 8.73 µM | PC-3 34 µM | SK-MEL-5 18.7 µM | OVCAR-8 21.2 µM

COc1cc(NC(C)=O)ccc1C(=O)NN1C(=O)C(Cl)C1c1ccco1 (centres undefined)
inactive: SN12C > 100 µM | CAKI-1 88.9 µM | CCRF-CEM 65.3 µM | UO-31 > 100 µM | A549 92.5 µM | MDA-MB-435 > 100 µM | M14 > 100 µM | BT-549 > 100 µM | MDA-N > 100 µM | NCI-H226 44.7 µM | SK-MEL-28 > 100 µM | RXF 393 > 100 µM | HL-60 41.7 µM | PC-3 > 100 µM | SK-MEL-5 76.4 µM | OVCAR-8 87.3 µM

CCOP(=O)(/C=C/n1ccc(=O)[nH]c1=O)OCC
inactive: SN12C > 100 µM | CAKI-1 > 100 µM | CCRF-CEM > 100 µM | A549 > 100 µM | MDA-MB-435 > 100 µM | NCI-H460 > 100 µM | M14 > 100 µM | MDA-MB-231 > 100 µM | BT-549 > 100 µM | MDA-N > 100 µM | NCI-H226 > 100 µM | SK-MEL-28 > 100 µM | RXF 393 > 100 µM | HL-60 > 100 µM | PC-3 > 100 µM | SK-MEL-5 > 100 µM | OVCAR-8 > 100 µM

Clc1ccc(OCc2nnc3n2N=C(c2ccccc2)CS3)cc1
inactive: SN12C 11.7 µM | CAKI-1 24.9 µM | UO-31 5.42 µM | A549 16.4 µM | NCI-H460 16.8 µM | M14 21.5 µM | NCI-H226 21.5 µM | SK-MEL-28 21.8 µM | HL-60 13 µM | OVCAR-8 14.1 µM

O=c1[nH]nc(Cc2ccc(Cl)cc2)n1/N=C/c1cccs1
inactive: SN12C 29.2 µM | CAKI-1 36.5 µM | CCRF-CEM > 100 µM | UO-31 46.2 µM | A549 64.9 µM | MDA-MB-435 > 100 µM | NCI-H460 > 100 µM | M14 > 100 µM | MDA-MB-231 21.3 µM | BT-549 24.9 µM | MDA-N > 100 µM | NCI-H226 43.5 µM | SK-MEL-28 > 100 µM | RXF 393 15.5 µM | HL-60 > 100 µM | PC-3 > 100 µM | OVCAR-8 27.5 µM

N#C/C(=C\c1cc(Br)c(O)c(Br)c1)c1ccccn1
inactive: SN12C 46.7 µM | CAKI-1 > 100 µM | CCRF-CEM 34.1 µM | UO-31 35.9 µM | A549 59.6 µM | NCI-H460 48.6 µM | M14 72.8 µM | BT-549 30.2 µM | MDA-N > 100 µM | NCI-H226 30.4 µM | SK-MEL-28 82 µM | RXF 393 91.4 µM | HL-60 > 100 µM | PC-3 29.1 µM | SK-MEL-5 41 µM | OVCAR-8 94.8 µM
